In one test the test system is Jejunum. The test can be described thus: Antispasmodic activity in Oryctolagus cuniculus (rabbit) jejunum assessed as K+-induced contraction at 1 mg/ml. It counts as functional.
The next test deals with Ileum. The test can be described thus: Ratio IC50 for papaverine to IC50 for compound for antispasmodic activity in rat ileum. The test is classed as functional.

Consider `C=C1CC[C@H]2O[C@]2(C)CC[C@@H]2[C@@H]1CC2(C)C` [(-)-CARYOPHYLLENE OXIDE], for which the inhibition at 1000 µg/mL with Jejunum worked out at 31.6%. The “Ratio IC50” value in the test on Ileum is listed as 0.071.

For `CO[C@]1(C)C[C@H](O)[C@@H]2[C@H](OC(=O)[C@H]2C)[C@@H]2[C@H]1CC[C@@]2(C)O`, the inhibition at 1000 µg/mL with Jejunum turned out to be 39.5%. For the same compound, the “Ratio IC50” value with Ileum stood at 0.083.

For `COc1ccc(CCN(C)CCCC(C#N)(c2ccc(OC)c(OC)c2)C(C)C)cc1OC` (stereo not drawn) [VERAPAMIL], in the test on Jejunum, the inhibition at 1000 µg/mL was determined as 67.5%.

As for `COc1ccc(Cc2nccc3cc(OC)c(OC)cc23)cc1OC` [PAPAVERINE], in the test on Ileum, the “Ratio IC50” value worked out at 1.

Turning to `CO[C@]1(C)C[C@H](O)[C@@H]2[C@H](OC(=O)[C@H]2C)[C@@H]2[C@H]1C[C@@H](O)[C@@]2(C)O`, the inhibition at 1000 µg/mL in the test with Jejunum stood at 43.4%. For the same compound, in the test with Ileum, the “Ratio IC50” value came out at 0.09.

(Values after ChEMBL document CHEMBL3046256, “Sesquiterpene lactones: antispasmodic principles of the freshwater algae Hydrodictyon reticulatum” (Med Chem Res, 2012).)
